Consider 30 compounds from patent US20230049231A1 (priority 2019, published 2023).

Assay [1] has as its target T1, Kv1.3 potassium channel (Homo sapiens, UniProt P22001).
T1 construct: expressed in transfected cells
Briefly: Kv1.3 potassium channel blocker activity, automated whole-cell patch clamp (Patchliner). In kind it is cell-based. A digest of the protocol:
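IC50 came from Hill-equation fits of peak and AUC currents from the final pulse at each concentration, normalized to compound-free control. Compounds applied consecutively at 30 nM to 100 μM (up to 0.3% DMSO) to Kv1.3-expressing CHO-K1 cells, P/4 leak subtraction. Pulses were +40 mV, 100 ms, from −90 mV holding, at 0.1 Hz on Patchliner.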

Assay [2] deals with T2, hERG channel (Homo sapiens, UniProt Q12809).
T2 construct: expressed in transfected cells
T2 sequence (Q12809 whole entry): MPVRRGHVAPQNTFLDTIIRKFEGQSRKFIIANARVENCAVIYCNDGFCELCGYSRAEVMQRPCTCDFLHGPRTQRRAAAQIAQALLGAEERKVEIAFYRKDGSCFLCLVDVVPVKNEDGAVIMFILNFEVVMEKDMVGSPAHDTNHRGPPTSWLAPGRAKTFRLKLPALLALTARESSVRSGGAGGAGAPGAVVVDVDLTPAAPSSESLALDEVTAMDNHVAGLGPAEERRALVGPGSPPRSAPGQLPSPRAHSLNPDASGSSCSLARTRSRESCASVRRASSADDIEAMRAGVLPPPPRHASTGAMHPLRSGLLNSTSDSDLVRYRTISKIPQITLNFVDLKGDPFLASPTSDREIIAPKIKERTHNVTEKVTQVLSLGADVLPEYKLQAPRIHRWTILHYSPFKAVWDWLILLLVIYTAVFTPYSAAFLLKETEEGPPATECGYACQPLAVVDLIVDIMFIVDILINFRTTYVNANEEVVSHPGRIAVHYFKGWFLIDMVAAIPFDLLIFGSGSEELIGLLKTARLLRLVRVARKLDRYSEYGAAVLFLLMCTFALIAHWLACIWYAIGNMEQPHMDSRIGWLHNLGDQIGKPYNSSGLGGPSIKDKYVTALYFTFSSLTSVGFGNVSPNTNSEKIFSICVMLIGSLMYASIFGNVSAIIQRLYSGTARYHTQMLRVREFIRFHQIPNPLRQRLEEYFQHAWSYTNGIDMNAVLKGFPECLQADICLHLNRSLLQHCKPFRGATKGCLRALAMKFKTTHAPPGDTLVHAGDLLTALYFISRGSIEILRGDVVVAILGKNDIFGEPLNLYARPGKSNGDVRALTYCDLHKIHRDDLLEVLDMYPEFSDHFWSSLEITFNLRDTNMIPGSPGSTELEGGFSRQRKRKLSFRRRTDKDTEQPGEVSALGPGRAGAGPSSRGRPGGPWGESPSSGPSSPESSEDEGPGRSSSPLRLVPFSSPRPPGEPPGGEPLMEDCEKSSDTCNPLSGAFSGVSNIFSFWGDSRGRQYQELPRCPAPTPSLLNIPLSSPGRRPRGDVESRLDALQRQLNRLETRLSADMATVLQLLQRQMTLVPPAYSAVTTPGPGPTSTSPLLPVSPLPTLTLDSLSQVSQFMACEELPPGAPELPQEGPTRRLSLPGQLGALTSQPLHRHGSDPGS
In words: hERG electrophysiology, automated whole-cell patch clamp (Patchliner). In kind it is cell-based. In short, it runs like this:
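Automated whole-cell patch clamp on CHO-K1 cells stably expressing hERG; 30 nM–100 μM applied cumulatively to the same cell, ≤0.3% DMSO. Pulses: −80 mV holding, +20 mV for 300 ms, −50 mV for 300 ms tail, 0.3 Hz, 70 per concentration. Last-pulse AUC and peak, normalized to control, were fitted to a Hill equation for IC50.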
In general terms: Block of hERG is tested as a sign of cardiac risk.

Setting [3] is: Kv1.3 potassium channel, whole-cell patch clamp.
Where [4] appears, read: hERG channel, whole-cell patch clamp.
Where [5] appears, read: CHO-K1 cells stably expressing Kv1.3, 100 ms pulses from -90 mV to +40 mV, 0.1 Hz.
Where [6] appears, read: CHO-K1 cells stably expressing hERG, +20 mV 300 ms, -50 mV 300 ms tail current, 0.3 Hz.

Bounds are passed on as bounds.

T1 sequence (P22001 whole entry): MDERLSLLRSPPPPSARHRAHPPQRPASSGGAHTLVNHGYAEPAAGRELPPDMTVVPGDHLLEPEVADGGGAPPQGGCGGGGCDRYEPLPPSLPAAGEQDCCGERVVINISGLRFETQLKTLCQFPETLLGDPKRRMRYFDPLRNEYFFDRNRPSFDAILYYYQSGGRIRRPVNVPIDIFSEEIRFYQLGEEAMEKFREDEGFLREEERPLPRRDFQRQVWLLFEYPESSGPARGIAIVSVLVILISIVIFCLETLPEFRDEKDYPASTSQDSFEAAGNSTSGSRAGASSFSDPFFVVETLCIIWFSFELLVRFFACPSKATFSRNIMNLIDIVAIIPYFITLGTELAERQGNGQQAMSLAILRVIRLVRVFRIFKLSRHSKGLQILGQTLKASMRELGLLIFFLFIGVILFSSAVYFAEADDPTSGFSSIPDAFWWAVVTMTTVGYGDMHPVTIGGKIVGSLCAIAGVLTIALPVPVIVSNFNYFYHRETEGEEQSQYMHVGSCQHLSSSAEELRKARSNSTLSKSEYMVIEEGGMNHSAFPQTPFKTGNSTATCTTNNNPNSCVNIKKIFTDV

For `O=C1CN(C[C@@H]2COCCN2)C[C@@H]2C[C@H](c3c(O)ccc(Cl)c3Cl)CN12` [Compound 144, (7R,8aS)-7-(2,3-dichloro-6-hydroxyphenyl)-2-[(3R)-morpholin-3-ylmethyl]-hexahydropyrrolo [1,2-a]pyrazin-4-one], the IC50 was under 1 µM in assay [1] (setting [3]) and over 30 µM in assay [2] (setting [4]).

Turning to `CC(=O)NC1CC(=O)N2C[C@@H](c3c(O)ccc(Cl)c3Cl)C[C@H]2C1` (stereo partly drawn) [Compound 206, N-[(2R,8aS)-2-(2,3-dichloro-6-hydroxyphenyl)-5-oxo-hexahydro-1H-indolizin-7-yl]acetamide], the IC50 is under 1 µM in assay [1] (setting [3]) and over 30 µM in assay [2] (setting [4]).

With `O=C([C@H](O)CO)N1CC(=O)N2C[C@@H](c3c(O)ccc(Cl)c3Cl)C[C@H]2C1` [Compound 42, (7R,8aS)-7-(2,3-dichloro-6-hydroxyphenyl)-2-((R)-2,3-dihydroxypropanoyl) hexahydropyrrolo[1,2-a]pyrazin-4(1H)-one], the IC50 in assay [1] (setting [5]) is under 1 µM; in assay [2] (setting [6]) it was over 30 µM.

In the case of `C[C@H]1[C@@H]2C[C@H](c3c(O)ccc(Cl)c3Cl)CCN2C(=O)CN1C(=O)CO` (single isomer, unassigned; isomer 2) [Compound 84], the figures for the IC50 in assay [1] (setting [3]) and in assay [2] (setting [4]) were under 1 µM and over 30 µM, respectively.

As for `NC(=O)N1CC(=O)N2C[C@@H](c3c(O)ccc(Cl)c3Cl)C[C@H]2C1` [Compound 55, (7R,8aS)-7-(2,3-dichloro-6-hydroxyphenyl)-4-oxo-hexahydropyrrolo[1,2-a]pyrazine-2-carboxamide], the IC50 in assay [1] (setting [5]) is under 1 µM; in assay [2] (setting [6]), over 30 µM.

`C[C@@H](O)CN1CC(=O)N2C[C@@H](c3c(O)ccc(Cl)c3Cl)C[C@H]2C1` (single isomer, unassigned; isomer 1) [Compound 150]: the figures for the concentration for half-maximal inhibition (IC50) in assay [1] (setting [3]) and in assay [2] (setting [4]) were under 1 µM and over 30 µM, respectively.

On to `O=C1C[C@@H](N2CC(=O)N3C[C@@H](c4c(O)ccc(Cl)c4Cl)C[C@H]3C2)CN1` (single isomer, unassigned; isomer 1) [Compound 160], for which the IC50 was under 1 µM in assay [1] (setting [3]) and over 30 µM in assay [2] (setting [4]).

Regarding `O=C1CN([C@H]2C[C@@H](O)C2)C[C@@H]2C[C@H](c3c(O)ccc(Cl)c3Cl)CN12` (relative stereo) [Compound 126, (7R,8aS)-7-(2,3-dichloro-6-hydroxyphenyl)-2-[(1s,3R)-rel-3-hydroxycyclobutyl] hexahydropyrrolo [1,2-a]pyrazin-4-one], the IC50 in assay [1] (setting [3]) was under 1 µM; in assay [2] (setting [4]), over 30 µM.

As to `O=C(C[C@@H](O)C(F)F)N1CC(=O)N2C[C@@H](c3c(O)ccc(Cl)c3Cl)C[C@H]2C1` [Compound 76, (7R,8aS)-7-(2,3-dichloro-6-hydroxyphenyl)-2-[(3R)-4,4-difluoro-3-hydroxybutanoyl]-hexahydropyrrolo [1,2-a]pyrazin-4-one], the IC50 in assay [1] (setting [3]) was under 1 µM; in assay [2] (setting [4]), over 30 µM.

Regarding `O=C(C[C@H](O)C1CC1)N1CC(=O)N2C[C@@H](c3c(O)ccc(Cl)c3Cl)C[C@H]2C1` [Compound 71, (7R,8aS)-2-[(3S)-3-cyclopropyl-3-hydroxypropanoyl]-7-(2,3-dichloro-6-hydroxyphenyl)-hexahydropyrrolo [1,2-a]pyrazin-4-one], the half-inhibitory concentration (IC50) is under 1 µM in assay [1] (setting [3]) and under 30 µM in assay [2] (setting [4]).

For `O=C1CN(C[C@H]2CNCCO2)C[C@@H]2C[C@H](c3c(O)ccc(Cl)c3Cl)CN12` [Compound 147, (7R,8aS)-7-(2,3-dichloro-6-hydroxyphenyl)-2-[(2R)-morpholin-2-ylmethyl]-hexahydropyrrolo [1,2-a]pyrazin-4-one], the IC50 in assay [1] (setting [3]) is under 1 µM; in assay [2] (setting [4]) it was over 30 µM.

For `N[C@H]1CC(=O)N2C[C@@H](c3c(O)ccc(Cl)c3Cl)C[C@H]2C1` (single isomer, unassigned) [Compound 189], the IC50 is under 1 µM in assay [1] (setting [3]) and over 30 µM in assay [2] (setting [4]).

For the compound `O=C(CC(O)C(F)F)N1CC(=O)N2C[C@@H](c3c(O)ccc(Cl)c3Cl)C[C@H]2C1` (stereo partly drawn) [Compound 73, (7R,8aS)-7-(2,3-dichloro-6-hydroxyphenyl)-2-(4,4-difluoro-3-hydroxybutanoyl)-hexahydropyrrolo [1,2-a]pyrazin-4-one], the IC50 was under 1 µM in assay [1] (setting [3]) and over 30 µM in assay [2] (setting [4]).

Consider `COC[C@H](CO)N1CC(=O)N2C[C@@H](c3c(O)ccc(Cl)c3Cl)C[C@H]2C1` (single isomer, unassigned) [Compound 118], for which the IC50 in assay [1] (setting [3]) was under 1 µM; in assay [2] (setting [4]), over 30 µM.

As to `CNC(=O)CC1OC[C@@H]2C[C@H](c3c(O)ccc(Cl)c3Cl)CCN2C1=O` (stereo partly drawn) [Compound 188, 2-[(8R,9aS)-8-(2,3-dichloro-6-hydroxyphenyl)-4-oxo-hexahydro-1H-pyrido[2,1-c] [1,4]oxazin-3-yl]-N-methylacetamide], the figures for the IC50 in assay [1] (setting [3]) and in assay [2] (setting [4]) were under 1 µM and over 30 µM, respectively.

On to `O=C(CO)NC[C@@H]1OC(=O)N2C[C@@H](c3c(O)ccc(Cl)c3Cl)C[C@@H]12` (single isomer, unassigned) [Compound 274], for which the IC50 in assay [1] (setting [3]) is under 1 µM; in assay [2] (setting [4]), over 30 µM.

As to `O=C(C1OC(=O)N2C[C@@H](c3c(O)ccc(Cl)c3Cl)C[C@@H]12)N1CCNCC1` (stereo partly drawn) [Compound 289, (6R,7aS)-6-(2,3-dichloro-6-hydroxyphenyl)-1-(piperazine-1-carbonyl)-tetrahydro-1H-pyrrolo[1,2-c][1,3]oxazol-3-one], the IC50 in assay [1] (setting [3]) is under 1 µM; in assay [2] (setting [4]) it was over 30 µM.

For the compound `O=C(N1CC[C@@H](O)C1)N1CC(=O)N2C[C@@H](c3c(O)ccc(Cl)c3Cl)C[C@H]2C1` [Compound 101, (7R,8aS)-7-(2,3-dichloro-6-hydroxyphenyl)-2-[(3R)-3-hydroxypyrrolidine-1-carbonyl]-hexahydropyrro[1,2-a]pyrazine-4-one], the IC50 in assay [1] (setting [3]) was under 1 µM; in assay [2] (setting [4]), over 30 µM.

On to `CC(C)(O)[C@@H]1OC(=O)N2C[C@@H](c3c(O)ccc(Cl)c3Cl)C[C@@H]12` (single isomer, unassigned) [Compound 256], for which the IC50 was under 1 µM in assay [1] (setting [3]) and over 30 µM in assay [2] (setting [4]).

In the case of `C[C@@H](O)C(=O)N1CC(=O)N2CC[C@@H](c3c(O)ccc(Cl)c3Cl)C[C@H]2C1` [Compound 16, (8R,9aS)-8-(2,3-dichloro-6-hydroxyphenyl)-2-[(2R)-2-hydroxypropanoyl]-hexahydro-1H-pyrido[1,2-a]pyrazin-4-one], the concentration for half-maximal inhibition (IC50) is under 1 µM in assay [1] (setting [5]) and over 30 µM in assay [2] (setting [6]).

As for `O=C1CN([C@@H]2C[C@@H](O)[C@@H](O)C2)C[C@@H]2C[C@H](c3c(O)ccc(Cl)c3Cl)CN12` (relative stereo) [Compound 131, (7R,8aS)-7-(2,3-dichloro-6-hydroxyphenyl)-2-[(1S,3R,4S)-rel-3,4-dihydroxycyclopentyl]-hexahydropyrrolo [1,2-a]pyrazin-4-one], the IC50 in assay [1] (setting [3]) was under 1 µM; in assay [2] (setting [4]), over 30 µM.

As to `O=C1C(CN2CCCC2)OC[C@@H]2C[C@H](c3c(O)ccc(Cl)c3Cl)CCN12` (stereo partly drawn) [Compound 181, (8R,9aS)-8-(2,3-dichloro-6-hydroxyphenyl)-3-(pyrrolidin-1-ylmethyl)-hexahydro-1H-pyrido[2,1-c][1,4]oxazin-4-one], the IC50 in assay [1] (setting [3]) is under 1 µM; in assay [2] (setting [4]) it was under 10 µM.

Consider `O=C1O[C@H](CN2CCOCC2)[C@@H]2C[C@H](c3c(O)ccc(Cl)c3Cl)CN12` (single isomer, unassigned) [Compound 285], for which the IC50 in assay [1] (setting [3]) was under 1 µM; in assay [2] (setting [4]) it was over 30 µM.

On to `C[C@@H]1CN(C(=O)CO)C[C@@H]2C[C@H](c3c(O)ccc(Cl)c3Cl)CN2C1=O` (single isomer, unassigned; isomer 1) [Compound 91], for which the IC50 in assay [1] (setting [3]) was under 1 µM; in assay [2] (setting [4]), over 30 µM.

In the case of `C[C@@]1(CO)OC(=O)N2C[C@@H](c3c(O)ccc(Cl)c3Cl)C[C@H]21` (single isomer, unassigned) [Compound 265], the IC50 in assay [1] (setting [3]) was under 1 µM; in assay [2] (setting [4]), over 30 µM.

For `O=C1C(O)C(O)C[C@@H]2C[C@H](c3c(O)ccc(Cl)c3Cl)CN12` (stereo partly drawn) [Compound 226, (2R,8aS)-2-(2,3-dichloro-6-hydroxyphenyl)-6,7-dihydroxy-hexahydro-1H-indolizin-5-one], the IC50 in assay [1] (setting [3]) was under 1 µM; in assay [2] (setting [4]) it was over 30 µM.

For `O=C(CO)NCC1OC[C@@H]2C[C@H](c3c(O)ccc(Cl)c3Cl)CCN2C1=O` (stereo partly drawn) [Compound 185, N-[[(8R,9aS)-8-(2,3-dichloro-6-hydroxyphenyl)-4-oxo-hexahydro-1H-pyrido[2,1-c][1,4]oxazin-3-yl]methyl]-2-hydroxyacetamide], the half-maximal inhibitory concentration (IC50) in assay [1] (setting [3]) was under 1 µM; in assay [2] (setting [4]) it was over 30 µM.

`O=C(NC[C@@H]1OC(=O)N2C[C@@H](c3c(O)ccc(Cl)c3Cl)C[C@@H]12)C1CNC1` (single isomer, unassigned) [Compound 277]: the IC50 was under 1 µM in assay [1] (setting [3]) and over 30 µM in assay [2] (setting [4]).

As to `C[C@@H](C1CNC1)N1CC(=O)N2C[C@@H](c3c(O)ccc(Cl)c3Cl)C[C@H]2C1` (single isomer, unassigned) [Compound 137], the IC50 was under 1 µM in assay [1] (setting [3]) and over 30 µM in assay [2] (setting [4]).

On to `C[C@@H]1CC(=O)N2C[C@@H](c3c(O)ccc(Cl)c3Cl)C[C@H]2CN1C(=O)CO` [Compound 93, (3R,8R,9aS)-8-(2,3-dichloro-6-hydroxyphenyl)-2-(2-hydroxyacetyl)-3-methyl-hexahydro-1H-pyrrolo[1,2-a][1,4]diazepin-5-one], for which the IC50 in assay [1] (setting [3]) was under 1 µM; in assay [2] (setting [4]), under 30 µM.

Broadly, the IC50 is the concentration that inhibits the measured activity by half. Low readings indicate higher potency, high ones lower potency.
